Data reported in US5099030A, “Novel compounds, pharmaceutical compositions, and methods for treating inflammation and pain” (The Procter & Gamble Company, priority 1991, dated 1992).

Assays:
[1] = Oral syrup in human (Example IX); assay type: in vivo; conditions: one teaspoon of syrup, 70 kg adult human
Description: (§1) A composition for oral administration is prepared by combining the following ingredients:
The above ingredients are combined to produce a syrup and are packaged under sterile conditions in 6 oz. bottles.

[2] = Oral soft gelatin capsules in human (Example VIII); assay type: in vivo; conditions: two oral capsules, 225 mg of composition each, 60 kg human
Description: as §1
The octadecenamide is dissolved in the sesame oil with the aid of sonication and is packaged in soft gelatin capsules using methods known in the art.

[3] = Topical application to human forearm (Example X); assay type: in vivo; conditions: for local analgesic effect: replacing N-((4-(2-methyl-2-aminopropoxy)-3-methoxyphenyl)-methyl)-9Z-octadecenamide
Description: A composition for topical administration is prepared by combining the following ingredients:
The octadecenamide is dissolved in a solution containing the other ingredients. Application of 0.4 ml of the resulting liquid to a 80 cm^2 portion of the forearm of a 60 kg human produces local analgesia which lasts approximately two days.

[4] = Rodent Hot Plate Test; assay type: in vivo, male Sprague-Dawley rats
Description: The degree of thermal analgesia obtained is determined using the "rodent hot plate test" (RHP). The RHP system is designed to detect and evaluate agents which elevate the threshold for the perception of pain. Classically, this method has been utilized primarily to evaluate opioid (narcotic) analgesic agents, such as morphine.
Male Sprague-Dawley rats (Charles River Breeding Laboratories Inc.) weighing between 100 and 125 grams upon arrival are used to evaluate the compounds of the present invention. Animals are double housed in stainless steel cages, and are fed Purina Rat Chow and tap water ad libitum. The animals are food fasted the afternoon proceeding the day of the study, and food is returned 5 hours post-treatment. Animals not being dosed by oral gavage are not fasted.
The apparatus for evaluating analgesic activity consists of an insulated copper hot plate whose surface is maintained at 55°±0.5° C. by a circulating water bath. A bottomless glass container (12" (30 cm) tall by 8" (20 cm) diameter) is used to restrict the animal to a defined area of the hot plate. After dosing, the animal is placed through the top opening of the container, and a stop watch is started when the animal makes contact with the plate. The stop-watch is stopped upon either of the following visually observed end points: (1) licking or biting of either hind paw, or (2) jumping. If the jump is not successful but both hind paws leave the surface of the plate in an effort to jump, this is considered jumping. The stop-watch is stopped at the end point and the animal is immediately removed from the hot plate. The time (latency) between the initial contact of the animal on the hot plate and the endpoint is recorded.
Prior to dosing, animals are tested on the hot plate. This is denoted as pretest or base line latency. Usually, the animals are dosed by oral gavage, using a 1 cubic cm glass syringe connected to a size 8 french catheter. The dose volume is 5 ml/kg. On occasion, the animals are dosed by either subcutaneous administration or intravenous injection. Using the subcutaneous administration, a 1 ml tuberculin syringe is connected to a 25 gauge 5/8 inch needle, and injected under the skin in the neck or back region. For intravenous dosing, a 1 ml tuberculin syringe is connected to a 25 gauge 3/4 inch winged infusion set, and injected into the tail vein. The dose volume for subcutaneous and intravenous routes is 1 ml/kg. The latency times are typically recorded at 1.5, 3, 5, and 24 hours post-treatment. Much shorter times are recorded for an intravenous administration.

[5] = Mouse Abdominal Constriction Assay (phenylquinone writhing); assay type: in vivo, male CF-1 mice; conditions: for % Analgesia (3 hrs post-dose): 3 hrs post-dose (time of peak analgesic effect)
Description: Compounds of the present invention are tested for analgesic activity using the mouse abdominal constriction assay. This assay is described in Hendershot and Forsaith, J. Pharmacol. Exo.
Male CF-1 mice (Charles River Breeding Laboratories, Inc.), weighing approximately 20 grams and food fasted overnight, are used in these assays. Test compounds are prepared for oral (p.o.) or subcutaneous (s.c.) administration, with compounds of the present invention being prepared in acidified (1N acetic acid) distilled deionized water so that the appropriate dose is given in 0.2 mls to a 20 gram mouse.
Ten minutes after the i.p. injection of phenylquinone, the number of full body writhes are counted for the succeeding ten minutes. Percent analgesia in this assay is calculated as follows: [formula]

[6] = 100 mg/kg oral, 24 hr post dose
[7] = 0.4 ml to 80 cm^2 of forearm, 60 kg human

CCCCCCCCNC(=O)Cc1ccc(OCCN)c(OC)c1 [N-octanyl-4-(2-aminoethoxy)-3-methoxyphenylacetamide]
analgesia [1]: substantially similar reduction of inflammation and analgesic effect
reduction of inflammation [1]: substantially similar reduction of inflammation
analgesia [2]: increased analgesic effect
reduction of inflammation [2]: substantially similar reduction of inflammation
local analgesic effect [3]: substantially similar local analgesic effect

CCCCCCCC/C=C\CCCCCCCCNC(=O)Cc1ccc(OCCN)c(OC)c1 [N-(9Z-octadecenyl)-4-(2-aminoethoxy)-3-methoxyphenylacetamide]
analgesia [1]: producing analgesia
reduction of inflammation [1]: reducing inflammation
Mean Latency Times ([4]; 10 mg/kg oral, 1.5 hr post dose): 6.7 s
Mean Latency Times ([4]; 10 mg/kg oral, 3 hr post dose): 15.3 s
Mean Latency Times ([4]; 10 mg/kg oral, 5 hr post dose): 13.5 s
Mean Latency Times ([4]; 10 mg/kg oral, 24 hr post dose): 9.1 s
Mean Latency Times ([4]; 25 mg/kg oral, 1.5 hr post dose): 10.5 s
Mean Latency Times ([4]; 25 mg/kg oral, 3 hr post dose): 11.2 s
Mean Latency Times ([4]; 25 mg/kg oral, 5 hr post dose): 10.8 s
Mean Latency Times ([4]; 25 mg/kg oral, 24 hr post dose): 8.0 s
Mean Latency Times ([4]; 50 mg/kg oral, 1.5 hr post dose): 24.5 s
Mean Latency Times ([4]; 50 mg/kg oral, 3 hr post dose): 12.2 s
Mean Latency Times ([4]; 50 mg/kg oral, 5 hr post dose): 10.6 s
Mean Latency Times ([4]; 50 mg/kg oral, 24 hr post dose): 15.9 s
Mean Latency Times ([4]; 100 mg/kg oral, 1.5 hr post dose): 16.4 s
Mean Latency Times ([4]; 100 mg/kg oral, 3 hr post dose): 13.4 s
Mean Latency Times ([4]; 100 mg/kg oral, 5 hr post dose): 11.9 s
Mean Latency Times [4, 6]: 21.5 s
analgesia [2]: increased analgesic effect
reduction of inflammation [2]: substantially similar reduction of inflammation
local analgesic effect [3]: substantially similar local analgesic effect

CCCCCCCCC(=O)NCc1ccc(OCC(C)(C)N)c(OC)c1 [N-((4-(2-methyl-2-aminopropoxy)-3-methoxyphenyl)-methyl)-nonanamide]
local analgesic effect [3]: substantially similar local analgesic effect

CCCCCCCCC(=O)NCc1ccc(OCCN)c(OC)c1 [N-((4-(2-aminoethoxy)-3-methoxyphenyl)-methyl)-nonanamide]
analgesia [1]: substantially similar reduction of inflammation and analgesic effect
reduction of inflammation [1]: substantially similar reduction of inflammation
Mean Latency Times ([4]; 50 mg/kg oral, 3 hr post dose): 7.5 s
Mean Latency Times ([4]; 50 mg/kg oral, 5 hr post dose): 7.2 s
Mean Latency Times ([4]; 50 mg/kg oral, 24 hr post dose): 8.1 s
Mean Latency Times ([4]; 100 mg/kg oral, 3 hr post dose): 9.9 s
Mean Latency Times ([4]; 100 mg/kg oral, 5 hr post dose): 10.2 s
Mean Latency Times [4, 6]: 12.3 s
Mean Latency Times ([4]; 200 mg/kg oral, 3 hr post dose): 10.8 s
Mean Latency Times ([4]; 200 mg/kg oral, 5 hr post dose): 16.4 s
Mean Latency Times ([4]; 200 mg/kg oral, 24 hr post dose): 22.0 s
Mean Latency Times ([4]; 300 mg/kg oral, 3 hr post dose): 14.1 s
Mean Latency Times ([4]; 300 mg/kg oral, 5 hr post dose): 14.6 s
Mean Latency Times ([4]; 300 mg/kg oral, 24 hr post dose): 20.3 s
analgesia [2]: increased analgesic effect
reduction of inflammation [2]: substantially similar reduction of inflammation

COc1ccc2c3c1O[C@H]1[C@@H](O)C=C[C@H]4[C@@H](C2)N(C)CC[C@@]341 [Codeine Phosphate, reference compound]
Mean Latency Times ([4]; 50 mg/kg oral, 1 hr post dose): 8.7 s
Mean Latency Times ([4]; 50 mg/kg oral, 2 hr post dose): 6.4 s
Mean Latency Times ([4]; 50 mg/kg oral, 4 hr post dose): 6.5 s
Mean Latency Times ([4]; 100 mg/kg oral, 1 hr post dose): 8.5 s
Mean Latency Times ([4]; 100 mg/kg oral, 2 hr post dose): 8.9 s
Mean Latency Times ([4]; 100 mg/kg oral, 4 hr post dose): 6.0 s
Mean Latency Times ([4]; 200 mg/kg oral, 1 hr post dose): 16.9 s
Mean Latency Times ([4]; 200 mg/kg oral, 2 hr post dose): 21.0 s
Mean Latency Times ([4]; 200 mg/kg oral, 4 hr post dose): 11.7 s
Mean Latency Times ([4]; 400 mg/kg oral, 1 hr post dose): 26.5 s
Mean Latency Times ([4]; 400 mg/kg oral, 2 hr post dose): 28.4 s
Mean Latency Times ([4]; 400 mg/kg oral, 4 hr post dose): 24.6 s

CCCCCCCC/C=C\CCCCCCCC(=O)NCc1ccc(OCC(N)C(=O)O)c(OC)c1 (centres unmarked) [N-((4-(2-amino-2-carboxyethoxy)-3-methoxyphenyl)-methyl)-9Z-octadecenamide]
analgesia [1]: substantially similar reduction of inflammation and analgesic effect
reduction of inflammation [1]: substantially similar reduction of inflammation
analgesia [2]: increased analgesic effect
reduction of inflammation [2]: substantially similar reduction of inflammation
local analgesic effect [3]: substantially similar local analgesic effect

CCCCCCCC/C=C\CCCCCCCC(=O)NCc1ccc(OC[C@@H](N)C(C)C)c(OC)c1 [N-((4-(2(S)-amino-3-methylbutoxy)-3-methoxyphenyl)methyl)-9Z-octadecenamide]
analgesia [1]: substantially similar reduction of inflammation and analgesic effect
reduction of inflammation [1]: substantially similar reduction of inflammation
analgesia [2]: increased analgesic effect
reduction of inflammation [2]: substantially similar reduction of inflammation
local analgesic effect [3]: substantially similar local analgesic effect

CCCCCCCC/C=C\CCCCCCCC(=O)NCc1ccc(OCCC(C)COCC(C)(C)N)c(OC)c1 (centres unmarked) [N-((4-(2-methyl-2-aminopropoxy)-3-methylbutoxy)-3-methoxyphenyl)methyl)-9Z-octadecenamide]
analgesia [1]: substantially similar reduction of inflammation and analgesic effect
reduction of inflammation [1]: substantially similar reduction of inflammation

CCCCCCCC/C=C\CCCCCCCC(=O)NCc1ccc(O)c(OC)c1 [N-Vanillyloleamide, N-vanillyloleamide, reference compound]
% Analgesia (3 hrs post-dose) ([5]; 0.75 mg/kg subcutaneous): 35.4%
% Analgesia (3 hrs post-dose) ([5]; 1.5 mg/kg subcutaneous): 62.8%
% Analgesia (3 hrs post-dose) ([5]; 2.25 mg/kg subcutaneous): 76.1%
% Analgesia (3 hrs post-dose) ([5]; 100 mg/kg oral): 36%
% Analgesia (3 hrs post-dose) ([5]; 200 mg/kg oral): 60%
% Analgesia (3 hrs post-dose) ([5]; 400 mg/kg oral): 79%
time of peak analgesic effect ([5]; mouse, in vivo): 3 hours post-dose

CCCCCCCC/C=C\CCCCCCCC(=O)NCc1ccc(OCC(C)(C)N)c(OC)c1 [N-((4-(2-methyl-2-aminopropoxy)-3-methoxyphenyl)-methyl)-9Z-octadecenamide]
analgesia [2]: increased analgesic effect
reduction of inflammation [2]: substantially similar reduction of inflammation
duration of local analgesia [3, 7]: approximately two
skin irritation [3, 7]: Little or no skin irritation

CCCCCCCC/C=C\CCCCCCCC(=O)NCc1ccc(OCC(N)CO)c(OC)c1 (centres unmarked) [N-((4-(2-amino-3-hydroxypropoxy)-3-methoxyphenyl)-methyl)-9Z-octadecenamide]
analgesia [1]: substantially similar reduction of inflammation and analgesic effect
reduction of inflammation [1]: substantially similar reduction of inflammation
analgesia [2]: increased analgesic effect
reduction of inflammation [2]: substantially similar reduction of inflammation
local analgesic effect [3]: substantially similar local analgesic effect
